How the values were obtained:
Assay type in all cases: cell-based
Alpha 2C = molecular target: T1, Alpha 2C (Homo sapiens, UniProt P18825); experiment: FLIPR assay, intracellular Ca2+ mobilization, alpha 2C; conditions: for EC50: agonist, read-out: Alpha 2C Potency (EC50); for Alpha 2C relative efficacy compared to a standard full agonist: value in parentheses
T1 sequence (P18825 1-462): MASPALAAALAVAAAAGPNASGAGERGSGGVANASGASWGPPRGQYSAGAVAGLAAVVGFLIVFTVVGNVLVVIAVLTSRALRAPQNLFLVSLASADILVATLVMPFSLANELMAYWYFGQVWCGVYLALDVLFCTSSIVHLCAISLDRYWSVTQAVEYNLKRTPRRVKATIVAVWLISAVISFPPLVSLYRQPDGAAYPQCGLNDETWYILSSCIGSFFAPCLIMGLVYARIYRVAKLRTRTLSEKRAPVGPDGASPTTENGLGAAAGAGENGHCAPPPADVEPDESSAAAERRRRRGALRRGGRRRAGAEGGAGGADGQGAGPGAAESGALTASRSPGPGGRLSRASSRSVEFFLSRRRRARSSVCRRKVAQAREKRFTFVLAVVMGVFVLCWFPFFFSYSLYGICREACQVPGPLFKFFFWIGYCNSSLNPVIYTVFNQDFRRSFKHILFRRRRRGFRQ
Experimental: (§1) Cells are loaded into a plate reader with a Ca^2+ dye indicator and incubated with various compounds. This assay is adequate for monitoring the intracellular Ca^2+ mobilization from fluorescent readings to evaluate receptor agonists.

Alpha 2A = molecular target: T2, Alpha 2A (Homo sapiens, UniProt P08913); experiment: FLIPR assay, intracellular Ca2+ mobilization, alpha 2A; conditions: for EC50: agonist, read-out: Alpha 2A Potency (EC50); for Alpha 2A relative efficacy compared to a standard full agonist: value in parentheses
T2 sequence (P08913 1-465): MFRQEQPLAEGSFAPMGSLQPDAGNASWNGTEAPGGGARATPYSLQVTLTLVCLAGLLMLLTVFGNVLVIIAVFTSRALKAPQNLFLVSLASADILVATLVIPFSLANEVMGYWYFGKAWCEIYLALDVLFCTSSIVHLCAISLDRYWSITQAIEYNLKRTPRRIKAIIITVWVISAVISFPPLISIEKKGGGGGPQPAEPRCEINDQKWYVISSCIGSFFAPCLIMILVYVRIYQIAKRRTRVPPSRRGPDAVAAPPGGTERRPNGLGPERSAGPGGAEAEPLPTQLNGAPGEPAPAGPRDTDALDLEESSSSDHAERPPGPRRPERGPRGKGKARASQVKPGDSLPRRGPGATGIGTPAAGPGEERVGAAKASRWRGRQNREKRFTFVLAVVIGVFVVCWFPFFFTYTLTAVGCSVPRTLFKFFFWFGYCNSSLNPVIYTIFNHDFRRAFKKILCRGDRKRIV
Experimental: The compounds described herein were tested for alpha adrenergic activity using a Fluorometric Imaging plate Reader (FLIPR) assay (Princen et al., 2003, Cytometry Part A. 51, pp. 35-45). Cells are loaded into a plate reader with a Ca^2+ dye indicator and incubated with various compounds. This assay is adequate for monitoring the intracellular Ca^2+ mobilization from fluorescent readings to evaluate receptor agonists. […] The compounds described herein activate alpha adrenergic receptors.

Alpha 2B = molecular target: T3, Alpha 2B (Homo sapiens, UniProt P18089); experiment: FLIPR assay, intracellular Ca2+ mobilization, alpha 2B; conditions: FLIPR; for EC50: agonist, read-out: Alpha 2B Potency (EC50); for Alpha 2B relative efficacy compared to a standard full agonist: value in parentheses
T3 sequence (P18089 1-450): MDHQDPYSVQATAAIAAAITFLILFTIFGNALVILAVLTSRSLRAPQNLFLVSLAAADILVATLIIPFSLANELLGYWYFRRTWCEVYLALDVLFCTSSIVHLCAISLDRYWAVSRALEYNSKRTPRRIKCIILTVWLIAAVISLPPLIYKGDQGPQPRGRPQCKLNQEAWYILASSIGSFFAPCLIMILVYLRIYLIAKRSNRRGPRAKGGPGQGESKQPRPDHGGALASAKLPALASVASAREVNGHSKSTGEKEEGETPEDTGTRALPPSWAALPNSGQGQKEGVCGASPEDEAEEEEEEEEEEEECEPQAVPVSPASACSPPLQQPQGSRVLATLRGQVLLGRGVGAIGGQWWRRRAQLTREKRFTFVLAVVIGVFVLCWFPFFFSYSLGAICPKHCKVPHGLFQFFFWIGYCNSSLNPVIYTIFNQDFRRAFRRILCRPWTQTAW
Experimental: as §1

SMILES | EC50 (Alpha 2C) [nM] | Alpha 2C relative efficacy compared to a standard full agonist (Alpha 2C) | EC50 (Alpha 2A) [nM] | Alpha 2A relative efficacy compared to a standard full agonist (Alpha 2A) | EC50 (Alpha 2B) [nM] | Alpha 2B relative efficacy compared to a standard full agonist (Alpha 2B)
c1cc2cc(NC3=NCCC3)ccc2[nH]1 [Compound 17, N-(3,4-Dihydro-2H-pyrrol-5-yl)-1H-indol-5-amine] | 9 | (0.9) | – | – | 10 | (0.15)
c1cnc2cc(NC3=NCCC3)ccc2n1 [Compound 14, N-(3,4-Dihydro-2H-pyrrol-5-yl)quinoxalin-6-amine] | 2740 | (0.66) | – | – | – | –
c1nc2cc(NC3=NCCC3)ccc2[nH]1 [Compound 4, N-(3,4-Dihydro-2H-pyrrol-5-yl)-1H-benzimidazol-5-amine] | 142 | (1.06) | – | – | 714 | (0.19)
c1cc2c(c(NC3=NCCC3)c1)CCC2 [Compound 16, N-(2,3-Dihydro-1H-inden-4-yl)-3,4-dihydro-2H-pyrrol-5-amine] | 123 | (0.85) | – | – | – | –
Cc1c(NC2=NCCC2)ccc2[nH]ccc12 [Compound 18, N-(3,4-Dihydro-2H-pyrrol-5-yl)-4-methyl-1H-indol-5-amine] | 69 | (0.9) | – | – | 39 | (0.18)
c1cc2ccc(NC3=NCCC3)cc2[nH]1 [Compound 21, N-(3,4-Dihydro-2H-pyrrol-5-yl)-1H-indol-6-amine] | 280 | (0.75) | – | – | – | –
Clc1ccc(NC2=NCCC2)c2ccccc12 [Compound 7, N-(4-Chloro-1-naphthyl)-3,4-dihydro-2H-pyrrol-5-amine] | 672 | (0.84) | – | – | 1070 | (0.33)
Clc1cc(NC2=NCCC2)cc2nc[nH]c12 [Compound 13, 7-Chloro-N-(3,4-dihydro-2H-pyrrol-5-yl)-1H-benzimidazol-5-amine] | 435 | (0.98) | – | – | 1840 | (0.35)
Clc1c(/N=C2\CCCN2)cnc2cccnc12 [Compound 6, 4-Chloro-N-[(2E)-pyrrolidin-2-ylidene]-1,5-naphthyridin-3-amine] | 2600 | (0.59) | – | – | – | –
Brc1ccc(NC2=NCCC2)c2ccccc12 [Compound 3, N-(4-Bromo-1-naphthyl)-3,4-dihydro-2H-pyrrol-5-amine] | 833 | (0.85) | – | – | 700 | (0.15)
c1nc2c(cc1NC1=NCCC1)CCC2 [Compound 5, N-(3,4-Dihydro-2H-pyrrol-5-yl)-6,7-dihydro-5H-cyclopenta[b]pyridin-3-amine] | 1280 | (0.86) | – | – | – | –
Cc1cc(NC2=NCCC2)cc2cc[nH]c12 [Compound 19, N-(3,4-Dihydro-2H-pyrrol-5-yl)-7-methyl-1H-indol-5-amine] | 12 | (0.85) | – | – | 142 | (0.29)
Brc1cc(NC2=NCCC2)cc2cc[nH]c12 [Compound 20, 7-Bromo-N-(3,4-dihydro-2H-pyrrol-5-yl)-1H-indol-5-amine] | 12 | (0.95) | – | – | 79 | (0.61)

Second part, the compound after the results:

EC50 (Alpha 2C) [nM] | Alpha 2C relative efficacy compared to a standard full agonist (Alpha 2C) | EC50 (Alpha 2A) [nM] | Alpha 2A relative efficacy compared to a standard full agonist (Alpha 2A) | EC50 (Alpha 2B) [nM] | Alpha 2B relative efficacy compared to a standard full agonist (Alpha 2B) | SMILES
2160 | (0.61) | – | – | – | – | c1cc(NC2=NCCC2)c2[nH]ccc2c1 [Compound 22, N-(3,4-Dihydro-2H-pyrrol-5-yl)-1H-indol-7-amine]
< 10 | (0.99) | 115 | (0.7) | 152 | (0.42) | c1cc(NC2=NCCC2)c2cc[nH]c2c1 [Compound 25, N-(3,4-Dihydro-2H-pyrrol-5-yl)-1H-indol-4-amine]
25 | (.92) | 96 | (.98) | 117 | (.76) | Brc1c(NC2=NCCC2)ccc2scnc12 [Compound 31, 4-Bromo-N-(3,4-dihydro-2H-pyrrol-5-yl)-1,3-benzothiazol-5-amine]
643 | (0.95) | – | – | – | – | c1cc(NC2=NCCC2)c2cnccc2c1 [Compound 32, N-(3,4-Dihydro-2H-pyrrol-5-yl)isoquinolin-8-amine]
2970 | (0.71) | – | – | – | – | c1cnc2c(NC3=NCCC3)cccc2c1 [Compound 30, N-(3,4-dihydro-2H-pyrrol-5-yl)quinolin-8-amine]
104 | (0.96) | – | – | – | – | c1cnc2cc(NC3=NCCC3)ccc2c1 [Compound 28, N-(3,4-Dihydro-2H-pyrrol-5-yl)quinolin-7-amine]
6 | (0.97) | 118 | (0.85) | 17 | (0.96) | c1cc2cc(/N=C3\CCCN3)cnc2[nH]1 [Compound 26, N-[(2E)-Pyrrolidin-2-ylidene]-1H-pyrrolo[2,3-b]pyridin-5-amine]
221 | (0.8) | – | – | 163 | (0.43) | c1ccc2c(c1)CCC[C@@H]2NC1=NCCC1 [Compound 34, N-[(1S)-1,2,3,4-Tetrahydronaphthalen-1-yl]-3,4-dihydro-2H-pyrrol-5-amine]
560 | (0.87) | – | – | 618 | (0.44) | Fc1cccc2c1C(NC1=NCCC1)CC2 (centres unmarked) [Compound 35, N-(7-Fluoro-2,3-dihydro-1H-inden-1-yl)-3,4-dihydro-2H-pyrrol-5-amine]
89 | (0.66) | – | – | – | – | c1cc2cc(NC3=NCCC3)ccc2s1 [Compound 23, N-1-Benzothien-5-yl-3,4-dihydro-2H-pyrrol-5-amine]
630 | (0.51) | – | – | – | – | c1cc2cc(NC3=NCCC3)ccc2o1 [Compound 24, N-1-Benzofuran-5-yl-3,4-dihydro-2H-pyrrol-5-amine]
22 | (0.9) | 555 | (0.79) | – | – | Cc1c(/N=C2\CCCN2)cnc2[nH]ccc12 [Compound 38, 4-Methyl-N-[(2E)-pyrrolidin-2-ylidene]-1H-pyrrolo[2,3-b]pyridin-5-amine]
281 | (0.68) | – | – | – | – | c1ccc2c(c1)CC[C@@H]2NC1=NCCC1 [Compound 33, N-[(1S)-2,3-Dihydro-1H-inden-1-yl]-3,4-dihydro-2H-pyrrol-5-amine]
